Test results: patent publication US20100022521A1, “COMPOUNDS” (Hansa Metallwerke AG, priority 2005, published 2010)

Columns and labels:
[1] = molecular target: mGluR5 (UniProt P31424); assay: MGluR5 receptor binding test ([3H]-M-MPEP displacement); set-up: species or system rat; settings: radioligand [3H]-M-MPEP (2 nM); species not given; read-out: mGlu5 Ki
Protocol: MGluR5 Receptor Binding Tests
Rat cerebro-cortical membrane preparation was used to determine the binding characteristics of reference compounds and novel compounds to the rat mGluR5. The A18 cell line expressing hmGluR5a (purchased from Euroscreen) was used to determine binding characteristics of the chemical compounds to the human mGluR5a receptor. As radioligand [3H]-M-MPEP (2 nM) was used. The nonspecific binding was determined in the presence of 10 μM M-MPEP.

[2] = molecular target: T1, rat mGluR1 (Rattus norvegicus, UniProt P23385); assay: MGluR1 receptor binding test ([3H]R214127 displacement); settings: rat cerebellar membrane; radioligand [3H]R214127 (3 nM); read-out: mGlu1 Ki
T1 construct: rat cerebellar membrane preparation was used; from tissue; host or cells: rat cerebellum (membrane preparation)
T1 sequence (P23385 19-1199): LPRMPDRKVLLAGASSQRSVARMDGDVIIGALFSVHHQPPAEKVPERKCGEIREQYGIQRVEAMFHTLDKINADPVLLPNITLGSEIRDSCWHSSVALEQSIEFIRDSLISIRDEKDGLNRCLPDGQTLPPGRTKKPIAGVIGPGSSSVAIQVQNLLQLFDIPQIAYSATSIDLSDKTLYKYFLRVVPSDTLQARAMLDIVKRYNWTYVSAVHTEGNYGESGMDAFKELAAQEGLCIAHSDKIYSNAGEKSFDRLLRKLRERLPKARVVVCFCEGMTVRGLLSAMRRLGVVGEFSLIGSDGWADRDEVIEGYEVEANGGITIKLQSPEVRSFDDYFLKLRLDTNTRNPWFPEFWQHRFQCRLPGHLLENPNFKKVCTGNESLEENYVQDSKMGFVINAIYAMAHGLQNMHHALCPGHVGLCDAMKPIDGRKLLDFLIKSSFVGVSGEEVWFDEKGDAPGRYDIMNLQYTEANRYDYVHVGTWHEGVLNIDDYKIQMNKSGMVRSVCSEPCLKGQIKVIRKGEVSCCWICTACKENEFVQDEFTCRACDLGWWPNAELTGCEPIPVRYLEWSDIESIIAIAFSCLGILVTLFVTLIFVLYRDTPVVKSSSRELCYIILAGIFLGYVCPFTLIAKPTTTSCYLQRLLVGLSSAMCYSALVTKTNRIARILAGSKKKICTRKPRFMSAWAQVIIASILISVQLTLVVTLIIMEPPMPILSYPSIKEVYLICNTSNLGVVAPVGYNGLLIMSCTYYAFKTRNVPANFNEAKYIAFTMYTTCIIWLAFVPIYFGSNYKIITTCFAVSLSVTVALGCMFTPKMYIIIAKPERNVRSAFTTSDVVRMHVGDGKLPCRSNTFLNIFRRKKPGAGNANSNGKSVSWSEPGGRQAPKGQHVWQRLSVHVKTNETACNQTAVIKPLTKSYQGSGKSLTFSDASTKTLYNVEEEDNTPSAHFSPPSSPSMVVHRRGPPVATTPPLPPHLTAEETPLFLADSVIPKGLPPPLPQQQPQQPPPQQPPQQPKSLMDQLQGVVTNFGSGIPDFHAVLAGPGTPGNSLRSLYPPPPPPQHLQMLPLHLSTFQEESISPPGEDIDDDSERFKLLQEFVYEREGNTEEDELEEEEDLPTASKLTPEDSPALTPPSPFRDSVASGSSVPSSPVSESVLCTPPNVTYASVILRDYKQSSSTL
Protocol: MGluR1 Receptor Binding Test
MGluR1 receptor binding testes were performed according to modified method of Lavreysen et al. (Mol. Pharm., 2003, 63, 1082). Based on the high homology between the human and rat mGluR1 receptors, rat cerebellar membrane preparation was used to determine the binding characteristics of reference compounds and novel compounds to the rat mGluR1. As radioligand [3H]R214127 (3 nM) was used and the nonspecific binding was determined in the presence of 1 μM of R214127.
IC-50 values were determined from displacement curves by nonlinear regression analysis and were converted by equation method of Cheng and Prusoff (Biochem. Pharmacol., 1973, 22, 3099) to Ki values.

Ki [1] [µM]	Ki [2] [µM]	SMILES
0.5 to 1.5	> 1.5	O=S(=O)(Nc1ccc(Cl)cc1)c1sc2ncccc2c1-c1ccc(Cl)cc1 [Compound 15, 3-(4-Chlorophenyl)-thieno[2,3-b]pyridine-2-sulfonic acid (4-chloro-phenyl)-amide]
< 0.5	> 1.5	O=S(=O)(c1cccnc1)c1sc2ncccc2c1-c1ccc(Cl)cc1 [Compound 10]
< 0.5	> 1.5	Cc1ccc(S(=O)(=O)c2sc3nc(F)ccc3c2-c2ccc(Cl)cc2)cc1F [Compound 89]
> 1.5	> 1.5	CC(=O)Nc1ccc(S(=O)(=O)c2sc3ncccc3c2-c2ccc(Cl)cc2)cc1 [Compound 5]
> 1.5	> 1.5	O=S(=O)(NCc1ccc(Cl)cc1)c1sc2ncccc2c1-c1ccc(Cl)cc1 [Compound 21, 3-(4-Chlorophenyl)-thieno[2,3-b]pyridine-2-sulfonic acid 4-chloro-benzylamide]
< 0.5	> 1.5	Cc1ccc(-c2c(S(=O)(=O)c3ccc(Cl)cc3)sc3ncccc23)cc1 [Compound 35]
< 0.5	> 1.5	O=S(=O)(c1ccccc1)c1sc2ncccc2c1-c1ccc(Cl)cc1 [Compound 8]
0.5 to 1.5	> 1.5	O=S(=O)(c1cccs1)c1sc2ncccc2c1-c1ccc(Cl)cc1 [Compound 13]
> 1.5		COc1ccc(S(=O)(=O)c2sc3ncccc3c2NC(=O)N2CCC(C)CC2)cc1 [Compound 120, N-[2-(4-methoxy-benzenesulfonyl)-thieno[2,3b]pyridin-3-yl]-4-methyl-piperidine-1-carboxamide]
< 0.5		N#Cc1ccc(-c2c(S(=O)(=O)c3cccc(C#N)c3)sc3ncccc23)cc1 [Compound 69]
< 0.5		CC1CCCN(c2c(S(=O)(=O)c3cccc(C#N)c3)sc3ncccc23)C1 (centres unmarked) [Compound 32]
< 0.5		N#Cc1cccc(S(=O)(=O)c2sc3nc(Cl)ccc3c2-c2ccc(F)cc2)c1 [Compound 74]
< 0.5		N#Cc1cccc(S(=O)(=O)c2sc3ncccc3c2-c2ccc(F)cc2)c1 [Compound 29]
< 0.5		N#Cc1cc(F)cc(S(=O)(=O)c2sc3ncccc3c2-c2cccc(F)c2)c1 [Compound 110, 2-(3-Cyano-5-fluoro-benzenesulfonyl)-3-(3-fluoro-phenyl)-thieno[2,3-b]pyridine]
> 1.5		O=C(Nc1c(S(=O)(=O)c2ccc(Cl)cc2)sc2ncccc12)N1CCCCC1 [Compound 121]
< 0.5		CC1CCN(c2c(S(=O)(=O)c3ccc(Cl)cc3)sc3nc(Cl)ccc23)CC1 [Compound 119]
< 0.5		Nc1cnc2sc(S(=O)(=O)c3ccc(Cl)cc3)c(-c3ccccc3F)c2c1 [Compound 131]
< 0.5		N#Cc1cc(F)cc(S(=O)(=O)c2sc3nc(Cl)ccc3c2-c2cccc(F)c2)c1 [Compound 138]
< 0.5		Cc1ccc(S(=O)(=O)c2sc3ncccc3c2-c2ccc(F)cc2)cc1 [Compound 55]
< 0.5		O=S(=O)(c1cccc(F)c1)c1sc2ncccc2c1-c1ccc(Cl)cc1 [Compound 31]
< 0.5		CN(C)c1ccc(S(=O)(=O)c2sc3ncccc3c2-c2ccc(Cl)cc2)cc1 [Compound 71]

Ki [1] [µM]	Ki [2] [µM]	SMILES
> 1.5		CNC(=O)Nc1c(S(=O)(=O)c2ccc(Cl)cc2)sc2ncccc12 [Compound 112]
0.5 to 1.5		O=S(=O)(c1ccc(Cl)cc1)c1sc2ncccc2c1-n1cncn1 [Compound 133]
< 0.5		N#Cc1ccc(S(=O)(=O)c2sc3ncccc3c2-c2cccc(Cl)c2)cc1 [Compound 42]
< 0.5		O=S(=O)(c1ccc(Br)s1)c1sc2ncccc2c1-c1ccc(Cl)cc1 [Compound 45]
< 0.5		Cc1ccc(S(=O)(=O)c2sc3nc(Cl)ccc3c2-c2ccc(Cl)cc2)cc1F [Compound 81]
< 0.5		COc1ccnc2sc(S(=O)(=O)c3ccc(Cl)cc3)c(-c3ccc(Cl)cc3)c12 [Compound 101, 2-(4-chloro-benzenesulfonyl)-3-(4-chloro-phenyl)-4-methoxy-thieno[2,3-b]pyridine]
< 0.5		Cc1ccc(S(=O)(=O)c2sc3ncccc3c2-c2ccc(Cl)cc2)cc1F [Compound 39]
< 0.5		O=S(=O)(c1cc(F)cc(C(F)(F)F)c1)c1sc2ncccc2c1-c1ccc(Cl)cc1 [Compound 34]
< 0.5		Cc1ccc(S(=O)(=O)c2sc3ncccc3c2-c2ccc(F)cc2)cc1C [Compound 24]
< 0.5		Cc1ccc(-c2c(S(=O)(=O)c3ccc(C)cc3)sc3ncccc23)cc1 [Compound 27]
< 0.5		Cc1ccc(-c2c(S(=O)(=O)c3cccc(C)c3)sc3ncccc23)cc1 [Compound 26]
< 0.5		N#Cc1cc(F)cc(S(=O)(=O)c2sc3nc(F)ccc3c2-c2cccc(F)c2)c1 [Compound 139]
0.5 to 1.5		O=[N+]([O-])c1cnc2sc(S(=O)(=O)c3ccc(Cl)cc3)c(-c3ccc(Cl)cc3)c2c1 [Compound 72, 2-(4-chloro-benzenesulfonyl)-3-(4-chloro-phenyl)-5-nitro-thieno[2,3-b]pyridine]
< 0.5		Cc1ccc(S(=O)(=O)c2sc3ncccc3c2-c2ccc(Cl)cc2)cc1Cl [Compound 63]
< 0.5		Cc1cccc(S(=O)(=O)c2sc3nc(Cl)ccc3c2-c2ccc(Cl)cc2)c1 [Compound 50]
< 0.5		COc1ccc(S(=O)(=O)c2sc3ncccc3c2-c2ccc(F)cc2)cc1F [Compound 126]
< 0.5		O=S(=O)(c1ccc(Cl)cc1)c1sc2ncccc2c1N1CC[C@@H](F)C1 [Compound 141]
< 0.5		O=S(=O)(c1ccc(Cl)cc1)c1sc2ncccc2c1-c1ccc(Cl)c(Cl)c1 [Compound 41]
> 1.5		CS(=O)(=O)c1ccc(-c2c(S(=O)(=O)c3ccc(Cl)cc3)sc3ncccc23)cc1 [Compound 108]
< 0.5		N#Cc1cc(F)cc(S(=O)(=O)c2sc3ncccc3c2-c2ccc(F)cc2)c1 [Compound 30]
0.5 to 1.5		N#CC1CCN(c2c(S(=O)(=O)c3ccc(Cl)cc3)sc3ncccc23)CC1 [Compound 93]

Ki [1] [µM]	Ki [2] [µM]	SMILES
< 0.5		Cc1cccc(S(=O)(=O)c2sc3ncccc3c2-c2ccc(Cl)cc2)c1 [Compound 22]
< 0.5		N#Cc1cccc(S(=O)(=O)c2sc3nc(F)ccc3c2-c2ccc(Cl)cc2)c1 [Compound 65]
< 0.5		O=S(=O)(c1ccc(Cl)cc1)c1sc2nccc(Cl)c2c1-c1ccc(Cl)cc1 [Compound 57, 4-Chloro-2-(4-chloro-benzenesulfonyl)-3-(4-chloro-phenyl)-thieno[2,3-b]pyridine]
< 0.5		O=S(=O)(c1ccc(Cl)cc1)c1sc2ncccc2c1-c1ccc(F)cc1F [Compound 130]
< 0.5		O=S(=O)(c1cc(F)cc(F)c1)c1sc2ncccc2c1-c1ccc(Cl)cc1 [Compound 87]
0.5 to 1.5		O=S(=O)(c1ccc(Cl)cc1)c1sc2ncccc2c1N1CCC(O)CC1 [Compound 99]
0.5 to 1.5		O=S(=O)(c1ccc(Cl)cc1)c1sc2nccc(O)c2c1-c1ccc(Cl)cc1 [Compound 103, 2-(4-chloro-benzenesulfonyl)-3-(4-chloro-phenyl)-4-hydroxy-thieno[2,3-b]pyridine]
< 0.5		CC1CCN(c2c(S(=O)(=O)c3cc(F)cc(C#N)c3)sc3ncccc23)CC1 [Compound 96]
> 1.5		N#Cc1cccc(S(=O)(=O)c2sc3nc(Cl)ccc3c2-c2ccc(Cl)cc2)c1 [Compound 51]
< 0.5		COc1ccc2c(-c3ccc(Cl)cc3)c(S(=O)(=O)c3cccc(C#N)c3)sc2n1 [Compound 64, 2-(3-Cyano-benzenesulfonyl)-3-(4-chloro-phenyl)-6-methoxy-thieno[2,3-b]pyridine]
< 0.5		CN1CCN(c2c(S(=O)(=O)c3ccc(Cl)cc3)sc3ncccc23)CC1 [Compound 106]
< 0.5		O=S(=O)(c1ccc(Cl)cc1)c1sc2ncccc2c1N1CCC(CO)CC1 [Compound 140]
> 1.5		CN(C)c1ccc(S(=O)(=O)c2sc3nccc(N(C)C)c3c2-c2ccc(Cl)cc2)cc1 [Compound 124, 3-(4-chloro-phenyl)-4-dimethylamino-2-(4-dimethylamino-benzenesulfonyl)-thieno[2,3-b]pyridine]
> 1.5		CNC(=O)Nc1c(S(=O)(=O)c2ccc(OC)cc2)sc2ncccc12 [Compound 111]
< 0.5		Cc1cc(C)cc(S(=O)(=O)c2sc3ncccc3c2-c2ccc(Cl)cc2)c1 [Compound 44]
< 0.5		COc1ccc(S(=O)(=O)c2sc3ncccc3c2-c2cccc(Cl)c2)cc1F [Compound 128]
< 0.5		O=S(=O)(c1ccc(Cl)cc1)c1sc2ncccc2c1N1CCCC(O)C1 (centres unmarked) [Compound 98]
> 1.5		Cc1cc(C)c(S(=O)(=O)c2sc3ncccc3c2-c2ccc(Cl)cc2)c(C)c1 [Compound 56]
< 0.5		Nc1cnc2sc(S(=O)(=O)c3ccc(Cl)cc3)c(-c3cccc(F)c3)c2c1 [Compound 115, 5-Amino-2-(4-chloro-benzenesulfonyl)-3-(3-fluor-phenyl)-thieno[2,3-b]pyridine]
< 0.5		CC1CCN(c2c(S(=O)(=O)c3ccc(Cl)cc3)sc3ncc(O)cc23)CC1 [Compound 107]
0.5 to 1.5		CC1CCN(c2cc(C#N)cc(S(=O)(=O)c3sc4ncccc4c3N3CCC(C)CC3)c2)CC1 [Compound 95]
